Test results reported in patent publication US4195023A, “2-(2-Furoyl)1,2-benzisothiazole-3-one, 2-(2-furoyl) saccharin, and 2-(2-thenoyl) saccharin” (Merck & Co., Inc., priority 1975, dated 1980).

Experiments:
papain-induced emphysema = experiment: Papain-Induced Emphysema in the Hamster; type: in vivo, Male Syrian hamsters; conditions: for I.S.A.3 (internal surface area), Mean ± S.E. / Lm (mean linear intercept), Mean ± S.E.: *p<0.05 versus saline i.tr. + papain aerosol group
Source text: In view of the test results, infra, the compounds of formula I, supra, are inhibitors of elastase and may be used to treat emphysema and other disorders which may be treated with elastase inhibitors, such as rheumatoid arthritis. The test procedure described below for papain-induced emphysema in the hamster is representative of recognized procedures used to experimentally papain-induce emphysema in the hamster such as that of Goldring et al. "Sequential Anatomic Changes in Lungs Exposed to Papain and other Proteolytic Enzymes" pages 389-410 in Pulmonary Emphysema and Proteolysis, edited by C. Mittman, Academic Press, Inc., New York and London, 1972.
Male Syrian hamsters in the weight range of 70-90 g were used. Food and water was allowed ad libitum except in the exposure chamber. The animals were anesthetized with pentobarbital 60 mg/kg intraperitoneally (i.p.) and saline (control) or 2-(2-furoyl)-saccharin suspended in distilled water in doses of 0.3, 1 and 3 mg was given intratracheally (i.tr.) through a slightly bent capillary tube (Kimax-51 No. 34500). […] Approximately 40 minutes later the animals were exposed to an aerosol of distilled water or 3% papain (Matheson, Coleman and Bell) for 3 hours. The aerosol was generated by two nebulizers (De Vilbiss 40) attached to the sides of a 28 liter chamber and operated at a pressure of 10 lbs. p.s.i. During this period 80-100 ml of solution was used.
Seven days after the exposure the animals were sacrificed with an overdose of pentobarbital, exanguinated by cutting the renal arteries and the lungs were excised, weighed and placed in a cylindrical 0.45 liter plethysmograph with the trachea tied to a conducting tube. The latter was connected to a respiratory pump (E & M Inst. Co., Houston, Tex.) modified to provide static inflation and deflation of the lungs. Transpulmonary pressure was recorded on the abcissa of a Honeywell 530 x-y recorder through a Grass volumetric pressure transducer (PT 5A). Changes in lung volume were recorded on the ordinate of a spirometer (10 ml capacity) connected to a Harvard linear motion transducer.
The specific static compliance (SSC) of the lungs was determined as follows: the lungs were inflated to a pressure of 20 cm H2 O and then deflated at 30 second intervals by steps of 5 cm H2 O pressure. The procedure was repeated and the second pressure volume defation curve was used for analysis. SSC was then calculated according to the formula ΔV/ΔP×W, where ΔV represents change in lung volume (ml) following change in pressure (ΔP) from 5 to 0 cm H2 O, and W is the lung wet weight (g).
Subsequently, the lungs were degassed and fixed intratracheally with formalin at a constant pressure of 15 cm H2 O for at least 48 hours and then dehydrated at the same pressure. All lungs were cleared in toluene, embedded under vacuum in parafin and each pair was blocked together. Two laterosagittal sections (6μ) of each lung were made and stained with hematoxylin and eosin and the extent of emphysematous lesions was quantitatively estimated by measuring the average intra-alveolar distance (mean linear intercept of Lm). A total of 20 random histologic fields were evaluated both vertically and horizontally and subsequently corrected for distortion and shrinkage. The internal surface area of the lungs measured at post-fixation lung volume (V) and corrected to an arbitrary total lung volume of 3 ml (ISA3) was calculated according to the formula 4V/Lm. In all studies statistical evaluation consisted of analysis of variance and significance was taken at P≤0.05.

[1] = system: elastase-induced emphysema (Porcine pancreatic elastase); experiment: Elastase-Induced Emphysema in the Hamster; type: in vivo, Male Syrian hamsters; conditions: for Lm, Mean ± S.E.: *P<0.05 versus elastase 0.1 mg i.tr. group
[2] = system: trypsin, chymotrypsin, plasmin, kallikrein, elastase, thrombin and a protease from Aspergillus oryzae; conditions: cited from earlier work
papain = conditions: cited from earlier work
Papain induced emphysema = conditions: hamster; cited from earlier work
[3] = Group C: 0.3 mg i.tr. + papain aerosol
[4] = Group D: 1 gm i.tr. (so in the source) + papain aerosol
[5] = Group E: 3 mg i.tr. + papain aerosol
[6] = Elastase 0.1 mg + 0.03 mg i.tr.

O=C(c1ccco1)N1C(=O)c2ccccc2S1(=O)=O [2-(2-Furoyl)-saccharin, 2-(2-Furoyl)saccharin]
% Inhibition (S.S.C.) (papain-induced emphysema; 0.3 mg i.tr. + papain aerosol): 34% | S.S.C. (specific static compliance) ΔV/ΔP × W, Mean ± S.E. (papain-induced emphysema; 0.3 mg i.tr. + papain aerosol): 0.529 ± 0.041 | % Inhibition (S.S.C.) (papain-induced emphysema; 3 mg i.tr. + papain aerosol): 74% | S.S.C. (specific static compliance) ΔV/ΔP × W, Mean ± S.E. (papain-induced emphysema; 3 mg i.tr. + papain aerosol, *P<0.05 versus saline i.tr. + papain aerosol group): 0.360 ± 0.017 | Inhibition, dose relation and significance (papain-induced emphysema; 0.3, 1 and 3 mg i.tr., significance at P≤0.05): dose related but significant only for doses of 1 and 3 mg | % Inhibition (S.S.C.) (papain-induced emphysema; 1 gm i.tr. (so in the source) + papain aerosol): 48% | S.S.C. (specific static compliance) ΔV/ΔP × W, Mean ± S.E. (papain-induced emphysema; 1 gm i.tr. (so in the source) + papain aerosol, *P<0.05 versus saline i.tr. + papain aerosol group): 0.471 ± 0.039 | % inhibition (I.S.A.3) (papain-induced emphysema; [3]): 58% | % inhibition (Lm) (papain-induced emphysema; [3]): 69% | I.S.A.3 (internal surface area), Mean ± S.E. (papain-induced emphysema; [3]): 400 + 38 cm^2 | Lm (mean linear intercept), Mean ± S.E. (papain-induced emphysema; [3]): 88.44 ± 2.54 μ | % inhibition (I.S.A.3) (papain-induced emphysema; [4]): 42% | % inhibition (Lm) (papain-induced emphysema; [4]): 59% | I.S.A.3 (internal surface area), Mean ± S.E. (papain-induced emphysema; [4]): 1344 ± 34 cm^2 | Lm (mean linear intercept), Mean ± S.E. (papain-induced emphysema; [4]): 90.87 ± 2.40 μ | % inhibition (I.S.A.3) (papain-induced emphysema; [5]): 65% | % inhibition (Lm) (papain-induced emphysema; [5]): 84% | I.S.A.3 (internal surface area), Mean ± S.E. (papain-induced emphysema; [5]): 1445 ± 54 cm^2 | Lm (mean linear intercept), Mean ± S.E. (papain-induced emphysema; [5]): 84.39 ± 2.68 μ | development of the emphysematous lesions (papain-induced emphysema; i.tr., evaluated by both physiologic and histologic methods): prevented the development of the emphysematous lestions | development of pulmonary emphysematous lesions ([1]; 1 mg added to elastase prior to i.tr. administration): completely prevented the development of pulmonary emphysematous lesions | protective effect (histological changes) ([1]; 0.03 to 0.3 mg added to elastase prior to i.tr. administration): partial but statistically significant protective effect | % inhibition of ΔLm [1, 6]: 48% | ΔLm [1, 6]: +17 μ | Lm, Mean ± S.E. [1, 6]: 96.61 ± 3.22 μ | % inhibition of ΔLm ([1]; Elastase 0.1 mg + 0.1 mg i.tr.): 54% | ΔLm ([1]; Elastase 0.1 mg + 0.1 mg i.tr.): +15 μ | Lm, Mean ± S.E. ([1]; Elastase 0.1 mg + 0.1 mg i.tr.): 94.34 ± 4.31 μ | % inhibition of ΔLm ([1]; Elastase 0.1 mg + 0.3 mg i.tr.): 51% | ΔLm ([1]; Elastase 0.1 mg + 0.3 mg i.tr.): +16 μ | Lm, Mean ± S.E. ([1]; Elastase 0.1 mg + 0.3 mg i.tr.): 96.27 ± 2.36 μ | % inhibition of ΔLm ([1]; Elastase 0.1 mg + 1.0 mg i.tr.): 100% | ΔLm ([1]; Elastase 0.1 mg + 1.0 mg i.tr.): -2 μ | Lm, Mean ± S.E. ([1]; Elastase 0.1 mg + 1.0 mg i.tr.): 77.68 ± 2.54 μ

human α1-antitrypsin (HAAT): a glycoprotein in human serum
inhibitory spectrum [2]: wide inhibitory spectrum covering trypsin, chymotrypsin, plasmin, kallikrein, elastase, thrombin and a protease from Aspergillus oryzae | inhibition of papain (papain): not inhibited | Papain induced emphysema inhibited (Papain induced emphysema): inhibited
